Assay [1] in a line: reduction of Shn3 3'UTR-driven luciferase in osteoblasts – cell-based, Clone20 osteoblasts, firefly luciferase, cherry-picked, dose response (AID 624132).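 Note: firefly luciferase luminescence from reporter carrying the Shn3 3'UTR in osteoblasts.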 Type of assay: functional.
Assay [2] has as its target Tyrosyl-DNA phosphodiesterase 2 (Homo sapiens, UniProt O95551). As to the kind of experiment: potency against TDP2 phosphodiesterase activity – biochemical, epi absorbance, IC50, dose response (AID 743297).
In assay [3] the target is Mitogen-activated protein kinase 14 (Homo sapiens, UniProt Q16539). The assay is classed as functional.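 Note: part of a kinome-wide panel, MAPK14 entry.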
Assay [4] deals with Tyrosine-protein kinase Srms (Homo sapiens, UniProt Q9H3Y6). The assay is classed as functional.
Assay [5] addresses Aurora kinase A (Homo sapiens, UniProt O14965). The assay is classed as functional.
The target of assay [6] is Mitogen-activated protein kinase kinase kinase 20 (Homo sapiens, UniProt Q9NYL2). The assay is classed as functional.
For assay [7], the target named is Serine/threonine-protein kinase PAK 4 (Homo sapiens, UniProt O96013). The assay is classed as functional.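 Note: value obtained within a kinome profiling panel in which PAK4 was one of the panel members.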
Assay [8] concerns the target High affinity nerve growth factor receptor (Homo sapiens, UniProt P04629). The assay is classed as functional.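 Note: NTRK1 tested as one member of a kinome-wide profiling panel.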
Assay [9] concerns the target Serine/threonine-protein kinase DCLK1 (Homo sapiens, UniProt O15075). Type of assay: functional.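 Note: affinity for DCLK1 (listed as DCAMKL1) measured as one member of a kinome-wide kinase profiling panel.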
The target in assay [10] is Mitogen-activated protein kinase kinase kinase kinase 2 (Homo sapiens, UniProt Q12851). Type of assay: functional.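 Note: measured as one member of a kinome-wide kinase panel, with MAP4K2 as the panel entry.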
The target in assay [11] is Ribosomal protein S6 kinase beta-1 (Homo sapiens, UniProt P23443). The assay is classed as functional.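 Note: measured as one member of a kinome-wide profiling panel.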
The target of assay [12] is Serine/threonine-protein kinase 3 (Homo sapiens, UniProt Q13188). The assay is classed as functional.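 Note: measured as one member of a kinome-wide kinase panel.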
The target of assay [13] is Cyclin-dependent kinase 7 (Homo sapiens, UniProt P50613). The assay is classed as functional.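 Note: value comes from a kinome-wide kinase profiling panel in which CDK7 is one member.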
Assay [14] deals with Calcium/calmodulin-dependent protein kinase type II subunit gamma (Homo sapiens, UniProt Q13555). The assay is classed as functional.
Assay [15] addresses Serine/threonine-protein kinase PAK 1 (Homo sapiens, UniProt Q13153). The assay is classed as functional.
Assay [16] deals with 5'-AMP-activated protein kinase catalytic subunit alpha-1 (Homo sapiens, UniProt Q13131). The assay is classed as functional.
Assay [17] deals with Serine/threonine-protein kinase MRCK alpha (Homo sapiens, UniProt Q5VT25). Type of assay: functional.
The target in assay [18] is cAMP-dependent protein kinase catalytic subunit alpha (Homo sapiens, UniProt P17612). Type of assay: functional.
The target of assay [19] is Mitogen-activated protein kinase 8 (Homo sapiens, UniProt P45983). Type of assay: functional.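 Note: value comes from one member of a kinome-wide kinase profiling panel.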
The target of assay [20] is Tyrosine-protein kinase FRK (Homo sapiens, UniProt P42685). Type of assay: functional.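 Note: FRK tested as one member of a kinome panel.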
Assay [21] has as its target Tyrosine-protein kinase SYK (Homo sapiens, UniProt P43405). The assay is classed as functional.
Assay [22] deals with Proto-oncogene tyrosine-protein kinase ROS (Homo sapiens, UniProt P08922). Type of assay: functional.
Sequence of Proto-oncogene tyrosine-protein kinase ROS (P08922 whole entry): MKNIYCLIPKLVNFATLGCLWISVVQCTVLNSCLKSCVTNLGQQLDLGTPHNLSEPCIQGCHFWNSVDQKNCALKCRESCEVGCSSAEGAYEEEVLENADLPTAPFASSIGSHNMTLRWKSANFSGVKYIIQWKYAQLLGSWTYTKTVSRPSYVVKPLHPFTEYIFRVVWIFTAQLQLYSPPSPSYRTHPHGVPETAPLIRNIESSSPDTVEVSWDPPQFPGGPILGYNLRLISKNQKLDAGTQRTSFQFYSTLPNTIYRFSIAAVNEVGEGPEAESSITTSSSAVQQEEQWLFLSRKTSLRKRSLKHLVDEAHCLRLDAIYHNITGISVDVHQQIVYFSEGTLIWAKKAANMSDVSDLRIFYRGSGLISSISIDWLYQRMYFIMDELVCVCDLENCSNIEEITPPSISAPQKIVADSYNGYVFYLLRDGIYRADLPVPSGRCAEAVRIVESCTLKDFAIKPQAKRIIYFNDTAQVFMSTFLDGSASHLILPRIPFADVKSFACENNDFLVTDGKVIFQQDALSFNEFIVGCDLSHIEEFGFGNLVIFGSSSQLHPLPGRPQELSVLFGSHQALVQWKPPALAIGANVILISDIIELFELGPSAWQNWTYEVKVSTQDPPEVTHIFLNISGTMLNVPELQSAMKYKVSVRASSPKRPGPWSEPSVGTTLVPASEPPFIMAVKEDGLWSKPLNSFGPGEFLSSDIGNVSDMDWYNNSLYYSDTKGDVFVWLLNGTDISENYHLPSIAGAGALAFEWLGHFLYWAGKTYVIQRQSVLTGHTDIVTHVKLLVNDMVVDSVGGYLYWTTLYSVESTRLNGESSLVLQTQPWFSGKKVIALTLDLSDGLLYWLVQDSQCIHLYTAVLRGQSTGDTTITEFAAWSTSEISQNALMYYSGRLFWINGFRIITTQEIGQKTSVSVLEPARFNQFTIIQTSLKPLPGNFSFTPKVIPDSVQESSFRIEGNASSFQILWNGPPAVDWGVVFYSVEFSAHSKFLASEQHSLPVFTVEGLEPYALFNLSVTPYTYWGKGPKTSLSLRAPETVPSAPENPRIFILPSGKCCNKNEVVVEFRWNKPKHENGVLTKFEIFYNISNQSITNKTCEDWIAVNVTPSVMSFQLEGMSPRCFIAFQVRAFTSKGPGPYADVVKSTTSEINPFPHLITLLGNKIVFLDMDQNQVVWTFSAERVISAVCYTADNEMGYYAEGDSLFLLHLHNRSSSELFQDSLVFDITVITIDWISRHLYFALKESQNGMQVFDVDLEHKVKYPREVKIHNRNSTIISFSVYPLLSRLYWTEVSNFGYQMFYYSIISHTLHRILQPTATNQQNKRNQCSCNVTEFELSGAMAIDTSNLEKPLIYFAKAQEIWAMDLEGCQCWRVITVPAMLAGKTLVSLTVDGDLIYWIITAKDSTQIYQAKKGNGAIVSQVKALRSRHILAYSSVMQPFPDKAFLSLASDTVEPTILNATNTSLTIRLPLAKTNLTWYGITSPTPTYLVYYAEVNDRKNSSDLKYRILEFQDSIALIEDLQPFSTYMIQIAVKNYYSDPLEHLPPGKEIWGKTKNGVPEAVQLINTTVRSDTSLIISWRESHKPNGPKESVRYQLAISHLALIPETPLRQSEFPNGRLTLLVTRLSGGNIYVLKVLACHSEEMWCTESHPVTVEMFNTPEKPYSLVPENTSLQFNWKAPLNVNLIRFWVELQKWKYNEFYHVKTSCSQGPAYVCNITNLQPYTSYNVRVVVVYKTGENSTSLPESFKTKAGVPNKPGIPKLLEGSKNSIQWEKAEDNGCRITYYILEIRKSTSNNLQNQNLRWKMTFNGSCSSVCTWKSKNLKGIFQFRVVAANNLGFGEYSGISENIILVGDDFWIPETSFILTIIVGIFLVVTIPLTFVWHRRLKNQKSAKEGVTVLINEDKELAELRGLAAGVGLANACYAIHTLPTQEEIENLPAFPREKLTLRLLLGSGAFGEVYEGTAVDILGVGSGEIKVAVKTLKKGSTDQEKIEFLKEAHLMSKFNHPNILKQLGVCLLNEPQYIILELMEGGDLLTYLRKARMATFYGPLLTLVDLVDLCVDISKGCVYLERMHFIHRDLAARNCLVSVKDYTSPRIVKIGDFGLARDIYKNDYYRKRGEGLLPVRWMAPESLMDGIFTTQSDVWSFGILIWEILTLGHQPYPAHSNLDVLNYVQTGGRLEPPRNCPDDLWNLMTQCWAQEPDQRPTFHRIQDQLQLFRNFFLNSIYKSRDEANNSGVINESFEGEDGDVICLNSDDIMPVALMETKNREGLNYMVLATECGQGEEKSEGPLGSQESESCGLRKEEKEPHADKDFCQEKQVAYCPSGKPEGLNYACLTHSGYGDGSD
Assay [23] addresses Protein kinase C gamma type (Homo sapiens, UniProt P05129). Type of assay: functional.
Assay [24] deals with Interleukin-1 receptor-associated kinase 1 (Homo sapiens, UniProt P51617). The assay is classed as functional.
Assay [25] deals with Casein kinase I isoform gamma-1 (Homo sapiens, UniProt Q9HCP0). Type of assay: functional.
For assay [26], the target named is Phosphorylase b kinase gamma catalytic chain, liver/testis isoform (Homo sapiens, UniProt P15735). Type of assay: functional.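 Note: PHKG2 measured as one member of a kinome-wide kinase panel.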
Assay [27] deals with T1, Streptokinase A (Streptococcus pyogenes serotype M1, UniProt P10520).
T1 sequence (P10520 whole entry): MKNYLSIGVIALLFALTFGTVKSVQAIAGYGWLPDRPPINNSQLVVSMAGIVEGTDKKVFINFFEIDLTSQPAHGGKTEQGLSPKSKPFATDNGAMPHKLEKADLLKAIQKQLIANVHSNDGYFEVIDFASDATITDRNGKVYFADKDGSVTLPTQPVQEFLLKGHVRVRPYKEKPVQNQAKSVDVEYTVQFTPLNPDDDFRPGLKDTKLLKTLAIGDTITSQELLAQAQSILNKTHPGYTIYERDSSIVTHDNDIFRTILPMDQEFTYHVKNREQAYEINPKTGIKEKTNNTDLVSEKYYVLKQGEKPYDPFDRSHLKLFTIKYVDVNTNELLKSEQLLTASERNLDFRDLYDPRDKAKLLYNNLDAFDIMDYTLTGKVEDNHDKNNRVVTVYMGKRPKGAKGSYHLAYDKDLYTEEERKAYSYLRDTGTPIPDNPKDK
As to the kind of experiment: viability-normalized secreted streptokinase activity reduction – plasminogen activation absorbance, OD405, dose response (AID 1914).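 Note: secreted streptokinase activity via plasminogen activation per viability signal from cell pellet.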 Type of assay: functional, Streptococcus pyogenes M1 GAS.

Assay [28] can be described thus: cytotoxicity toward HT-29 cells – cell-based, CellTiter-Glo luminescence, IC50, dose response (AID 1117330). Type of assay: functional. In general terms: Cellular ATP, detected with luciferase, serves as a proxy for viable cell number.
For assay [29], the target named is T2, Calpain-2 catalytic subunit (Sus scrofa, UniProt P43367).
T2 sequence (P43367 whole entry): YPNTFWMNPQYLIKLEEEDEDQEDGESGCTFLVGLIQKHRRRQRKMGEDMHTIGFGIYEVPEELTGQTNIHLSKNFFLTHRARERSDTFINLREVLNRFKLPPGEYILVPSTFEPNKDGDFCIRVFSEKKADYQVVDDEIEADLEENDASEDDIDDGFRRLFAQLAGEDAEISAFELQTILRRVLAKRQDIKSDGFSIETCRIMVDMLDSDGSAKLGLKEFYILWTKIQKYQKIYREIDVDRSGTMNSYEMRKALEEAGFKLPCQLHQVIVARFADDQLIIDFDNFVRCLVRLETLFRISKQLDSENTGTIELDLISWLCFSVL
Nature of the assay: m-calpain protease blockers, concentration series – biochemical, fluorogenic peptide substrate, dose response (AID 1420). Type of assay: functional.

Assay [30] concerns the target 1-acylglycerol-3-phosphate O-acyltransferase ABHD5/Perilipin-5 (Homo sapiens, UniProt Q00G26+Q8WTS1). As to the kind of experiment: Luminescence-based biochemical high throughput dose response assay for inhibitors of the interaction of the lipase co-activator protein, abhydrolase domain containing 5 (ABHD5) with perilipin-5 (MLDP; PLIN5) (2K validation set). [Related pubchem assays (depositor defined):AID493035, AID493241].

A short description of assay [31]: CellTiter-Glo luminescence survival assay, SW480 colon tumor line, concentration-response curve, half-maximal inhibitory concentration (AID 1117338). The assay is classed as functional.
The test system of assay [32] is Streptococcus sp. 'group A'. As to the kind of experiment: Streptococcus pyogenes SK(-)GAS viability under kanamycin – luminescence, BacTiterGlo, confirmation, counter-screen for streptokinase expression inhibitor project, dose response (AID 1900). The assay is classed as functional, organism-based. In general terms: Counterscreens check selectivity or assay interference.

Assay [33] in a line: NIH-3T3 fibroblast cytotoxicity, dose response, cytotoxicity control, cell-based, fluorescence, Alamar Blue, secondary assay (AID 2327).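 Note: NIH-3T3 mouse fibroblasts cultured with fluconazole at 8 µg/mL.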 Type of assay: functional. On the technique in general: Alamar Blue is a resazurin reagent that responds to reducing activity.
A short description of assay [34]: viability loss of HPDE-C7K cells – cell-based, fluorescence, HTS, primary screen (AID 431). Type of assay: functional. Particulars: Homo sapiens.

Where “and” joins values, the source holds several entries; their conditions need not be identical. Equal values may be shown once. Calls of active or inactive are those of the source.

Sequence of Aurora kinase A (O14965 whole entry): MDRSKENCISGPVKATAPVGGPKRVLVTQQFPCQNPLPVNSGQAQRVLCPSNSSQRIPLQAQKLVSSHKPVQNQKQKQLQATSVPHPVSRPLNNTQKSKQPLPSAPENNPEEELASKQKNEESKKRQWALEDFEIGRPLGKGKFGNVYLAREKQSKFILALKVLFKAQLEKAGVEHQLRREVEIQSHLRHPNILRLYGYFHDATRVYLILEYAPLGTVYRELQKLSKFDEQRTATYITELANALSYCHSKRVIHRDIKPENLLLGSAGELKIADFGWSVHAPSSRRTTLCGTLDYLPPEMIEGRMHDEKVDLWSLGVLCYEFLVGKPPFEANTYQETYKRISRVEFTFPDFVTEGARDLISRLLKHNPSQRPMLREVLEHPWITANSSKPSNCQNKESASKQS
Sequence of 1-acylglycerol-3-phosphate O-acyltransferase ABHD5/Perilipin-5 (Q00G26 whole entry, the tested form may be a part): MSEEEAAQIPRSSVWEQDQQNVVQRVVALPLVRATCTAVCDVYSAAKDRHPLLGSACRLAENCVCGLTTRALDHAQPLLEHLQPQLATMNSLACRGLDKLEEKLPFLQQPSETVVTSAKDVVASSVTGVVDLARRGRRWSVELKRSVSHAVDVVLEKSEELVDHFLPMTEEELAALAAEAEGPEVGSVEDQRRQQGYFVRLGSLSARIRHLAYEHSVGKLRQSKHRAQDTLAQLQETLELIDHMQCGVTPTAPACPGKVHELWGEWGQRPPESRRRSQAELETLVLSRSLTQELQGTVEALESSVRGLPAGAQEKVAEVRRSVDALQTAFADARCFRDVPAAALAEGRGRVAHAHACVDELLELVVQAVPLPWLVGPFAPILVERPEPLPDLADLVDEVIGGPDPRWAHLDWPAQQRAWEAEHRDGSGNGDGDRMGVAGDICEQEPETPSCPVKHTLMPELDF
Sequence of 1-acylglycerol-3-phosphate O-acyltransferase ABHD5/Perilipin-5 (Q8WTS1 whole entry, the tested form may be a part): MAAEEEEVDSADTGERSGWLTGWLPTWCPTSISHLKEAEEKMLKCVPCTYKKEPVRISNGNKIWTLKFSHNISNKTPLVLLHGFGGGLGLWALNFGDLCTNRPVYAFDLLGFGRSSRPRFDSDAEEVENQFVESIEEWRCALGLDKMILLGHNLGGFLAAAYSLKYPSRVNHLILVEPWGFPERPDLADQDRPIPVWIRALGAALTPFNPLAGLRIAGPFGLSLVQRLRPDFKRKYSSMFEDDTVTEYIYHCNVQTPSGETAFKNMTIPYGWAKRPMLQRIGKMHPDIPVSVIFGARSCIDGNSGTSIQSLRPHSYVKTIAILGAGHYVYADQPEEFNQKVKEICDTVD
Sequence of Serine/threonine-protein kinase PAK 1 (Q13153 whole entry): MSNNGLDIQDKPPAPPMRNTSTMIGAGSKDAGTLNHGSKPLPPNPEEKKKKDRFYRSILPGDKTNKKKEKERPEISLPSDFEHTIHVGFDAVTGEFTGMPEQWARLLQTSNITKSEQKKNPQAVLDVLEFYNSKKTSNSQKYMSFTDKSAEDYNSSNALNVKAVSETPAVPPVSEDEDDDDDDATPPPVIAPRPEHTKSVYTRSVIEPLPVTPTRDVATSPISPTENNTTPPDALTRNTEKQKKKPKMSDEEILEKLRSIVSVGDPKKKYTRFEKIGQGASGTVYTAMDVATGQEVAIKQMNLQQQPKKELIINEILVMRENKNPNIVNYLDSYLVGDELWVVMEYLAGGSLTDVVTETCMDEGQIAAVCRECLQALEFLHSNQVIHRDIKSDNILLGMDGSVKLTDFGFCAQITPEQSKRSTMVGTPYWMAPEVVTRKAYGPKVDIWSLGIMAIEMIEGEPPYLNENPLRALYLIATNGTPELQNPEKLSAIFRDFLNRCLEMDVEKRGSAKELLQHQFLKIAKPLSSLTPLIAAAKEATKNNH
Sequence of Serine/threonine-protein kinase DCLK1 (O15075 whole entry): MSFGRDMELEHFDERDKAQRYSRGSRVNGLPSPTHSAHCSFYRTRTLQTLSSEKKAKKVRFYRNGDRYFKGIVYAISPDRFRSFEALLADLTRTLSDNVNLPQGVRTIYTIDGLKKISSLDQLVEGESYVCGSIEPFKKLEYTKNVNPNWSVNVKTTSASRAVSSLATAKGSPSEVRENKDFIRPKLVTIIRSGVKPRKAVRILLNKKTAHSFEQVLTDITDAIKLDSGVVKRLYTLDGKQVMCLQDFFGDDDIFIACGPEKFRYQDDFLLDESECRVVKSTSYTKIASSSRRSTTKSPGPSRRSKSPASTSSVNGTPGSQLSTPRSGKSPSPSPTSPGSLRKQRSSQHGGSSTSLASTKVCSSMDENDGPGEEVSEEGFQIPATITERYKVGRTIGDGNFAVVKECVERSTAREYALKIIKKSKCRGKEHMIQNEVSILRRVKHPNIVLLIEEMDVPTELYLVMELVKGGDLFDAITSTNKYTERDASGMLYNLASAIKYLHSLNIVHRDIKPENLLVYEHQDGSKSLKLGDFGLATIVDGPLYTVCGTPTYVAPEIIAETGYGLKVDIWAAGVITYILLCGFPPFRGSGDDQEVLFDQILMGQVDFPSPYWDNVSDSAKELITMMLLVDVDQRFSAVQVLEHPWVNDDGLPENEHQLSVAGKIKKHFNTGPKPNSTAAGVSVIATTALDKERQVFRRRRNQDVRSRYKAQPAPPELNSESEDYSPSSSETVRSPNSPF

As a reminder, the AC50 is the concentration giving half of the maximal activity seen. The term IC50 denotes the concentration at which inhibition is half-maximal. As for `O=C1C=C(N2CCOCC2)c2ccccc2C1=O`, the AC50 in [1] is 7.16 µM (active). Also, in [2], the IC50 is 2.55 µM (active).

A word on the Ki: it is a dissociation constant, usually derived from enzyme kinetics or from competition with a known ligand. With `N#Cc1ccc2[nH]c(O)c(-c3ccc(CN4CCOCC4)cn3)c2c1` [AZD-1080], the Ki was > 3.98 µM (inactive) in [3]; > 1.58 µM (inactive) in assay [4]; > 1.58 µM (inactive) in [5]; > 7.94 µM (inactive) in assay [6]; > 5.01 µM (inactive) in assay [7]; > 2.51 µM (inactive) in assay [8]. For the same compound, the Ki is > 10 µM (inactive) in assay [9]; > 3.98 µM (inactive) in [10]; > 6.31 µM (inactive) in [11]; > 7.94 µM (inactive) in [12]; 1 µM (active) in assay [13]; 5.01 µM (active) in [14]. Further, the Ki in assay [15] was > 10 µM (inactive); in assay [16], > 2.51 µM (inactive); in assay [17] it was > 10 µM (inactive); in assay [18], > 3.16 µM (inactive); in assay [19] it was > 5.01 µM (inactive); in assay [20], > 2.51 µM (inactive). For the same compound, the Ki in [21] is > 1.58 µM (inactive); in assay [22], > 2 µM (inactive); in assay [23], > 7.94 µM (inactive); in [24], > 7.94 µM (inactive); in assay [25], > 6.31 µM (inactive); in [26] it was > 5.01 µM (inactive).

As usually defined, the EC50 is the concentration giving half of the maximal effect. As to `CCc1oc2ccccc2c1C(=O)c1cc(Br)c(O)c(Br)c1` [BENZBROMARONE], the concentration giving a half-maximal response (EC50) in [27] was 17.2 µM (inconclusive); in assay [32] it was 7.44 µM (active); in assay [33], > 160 µM (inactive); in [34], 5.29 µM (active). Moreover, the IC50 was 1.14 µM (active) in [28]; 7.97 µM (not active) and 4.88 µM (not active) in assay [29]; 18.8 µM (inactive) in assay [30]; 1.74 µM (active) in [31].

Values taken from ChEMBL document CHEMBL1201862, “PubChem BioAssay data set” (2004).
